Consider 16 molecules from patent US9561212B2, “Hepatitis C virus inhibitors” (BRISTOL-MYERS SQUIBB COMPANY, priority 2012, dated 2017).

For the first experiment, the system named is HCV 1b genotype. The experiment is described as follows: microbe, parasite or virus in culture. It counts as cell-based, Hepatitis C virus. Particulars: HCV 1b replicon; read-out: Range: EC50 ranges against HCV 1b. How it is done: An HCV Replicon assay was utilized in the present disclosure, and was prepared, conducted and validated as described in commonly owned PCT/US2006/022197 and in O'Boyle et. al. Antimicrob Agents Chemother. 2005 April; 49(4):1346-53. Assay methods incorporating luciferase reporters have also been used as described (Apath.com).
HCV-neo replicon cells and replicon cells containing resistance substitutions in the NS5A region were used to test the currently described family of compounds.
(A replicon is a self-replicating genome or part of one, used to study replication in cells.)
As for `COC(=O)NC(C(=O)N1CCCC1c1ncc(-c2ccc(C#Cc3ccc(-c4cnc(C5CCCN5C(=O)C(NC(=O)OC)C5CCOC6(CC6)C5)[nH]4)cc3)cc2)[nH]1)C1CCOC2(CC2)C1` [OL7, dimethyl (((2S,2′S)-2,2′-(5,5′-(ethyne-1,2-diylbis(4,1-phenylene))bis(1H-imidazole-5,2-diyl))bis(pyrrolidine-2,1-diyl))bis(2-oxo-1-(4-oxaspiro[2.5]octan-7-yl)ethane-2,1-diyl))dicarbamate], the EC50 fell in the range of 0.00501 to 0.1 nM.

On to `COC(=O)NC(C(=O)N1[C@@H](C)CC[C@H]1c1ncc(-c2ccc(-c3ccc(-c4cnc([C@@H]5CC[C@H](C)N5C(=O)C(NC(=O)OC)C5CCOC6(CCCC6)C5)[nH]4)cc3)cc2)[nH]1)C1CCOC2(CCCC2)C1` (single isomer, unassigned) [Example 3.2], for which the EC50 fell in the range of 0.9 to 700 nM.

For `COC(=O)NC(C(=O)N1[C@@H](C)CC[C@H]1c1nc(-c2ccc(-c3ccc(-c4c[nH]c([C@@H]5CC[C@H](C)N5C(=O)C(NC(=O)OC)=C5CC(C)(C#N)C5)n4)cc3)cc2)c[nH]1)=C1CC(C)(C#N)C1` (stereo partly drawn) [Example 12.2, dimethyl (4,4′-biphenyldiylbis(1H-imidazole-4,2-diyl((2S,5S)-5-methyl-2,1-pyrrolidinediyl)(1-(3-cyano-3-methylcyclobutylidene)-2-oxo-2,1-ethanediyl)))biscarbamate], the EC50 was in the range of 0.9 to 700 nM.

For `COC(=O)NC(C(=O)N1[C@@H]2C[C@@H]2C[C@H]1c1nc(-c2ccc(-c3ccc(-c4c[nH]c([C@@H]5C[C@H]6C[C@H]6N5C(=O)C(NC(=O)OC)C5C[C@@H]6C[C@@H]6C5)n4)cc3)cc2)c[nH]1)C1C[C@@H]2C[C@@H]2C1` (single isomer, unassigned; diastereomer 2) [QC3.2], the EC50 lay in the range of 0.00501 to 0.1 nM.

As for `COC(=O)NC(C(=O)N1[C@@H]2C[C@@H]2C[C@H]1c1nc(-c2ccc(-c3ccc(-c4c[nH]c([C@@H]5C[C@H]6C[C@H]6N5C(=O)C(NC(=O)OC)C5[C@H]6COC[C@@H]56)n4)cc3)cc2)c[nH]1)C1[C@H]2COC[C@@H]12` (single isomer, unassigned; diastereomer 1) [QC4.1], the EC50 was 0.00501 to 0.1 nM.

In the case of `COC(=O)NC(C(=O)N1CC(C)CC1c1ncc(-c2ccc(C3CC3c3ccc(-c4cnc(C5CC(C)CN5C(=O)C(NC(=O)OC)C5CCOC6(CC6)C5)[nH]4)cc3)cc2)[nH]1)C1CCOC2(CC2)C1` [Example OL1, dimethyl (((3S,3′S,5S,5′S)-5,5′-(5,5′-((1S,2S)-cyclopropane-1,2-diylbis(4,1-phenylene))bis(1H-imidazole-5,2-diyl))bis(3-methylpyrrolidine-5,1-diyl))bis(2-oxo-1-(4-oxaspiro[2.5]octan-7-yl)ethane-2,1-diyl))dicarbamate], the EC50 lay in the range of 0.00501 to 0.1 nM.

Turning to `COC(=O)NC(C(=O)N1C(c2ncc(-c3ccc(C#Cc4ccc(-c5cnc(C6CC7CC7N6C(=O)C(NC(=O)OC)C6CCOC7(CC7)C6)[nH]5)cc4)cc3)[nH]2)CC2CC21)C1CCOC2(CC2)C1` [OL4, dimethyl (((1R,1′R,3S,3′S,5R,5′R)-3,3′-(5,5′-(ethyne-1,2-diylbis(4,1-phenylene))bis(1H-imidazole-5,2-diyl))bis(2-azabicyclo[3.1.0]hexane-3,2-diyl))bis(2-oxo-1-(4-oxaspiro[2.5]octan-7-yl)ethane-2,1-diyl))dicarbamate], the EC50 lay within 0.00501 to 0.1 nM.

On to `COC(=O)NC(C(=O)N1[C@@H](C)CC[C@H]1c1ncc(-c2ccc(-c3ccc(-c4cnc([C@@H]5CC[C@H](C)N5C(=O)C(NC(=O)OC)C5CCOC6(CCC6)C5)[nH]4)cc3)cc2)[nH]1)C1CCOC2(CCC2)C1` (single isomer, unassigned) [Example 2.1], for which the EC50 is 0.9 to 700 nM.

`COC(=O)NC(C(=O)N1[C@@H](C)CC[C@H]1c1ncc(-c2ccc(-c3ccc(-c4cnc([C@@H]5CC[C@H](C)N5C(=O)C(NC(=O)OC)C5CCOC6(CCC6)C5)[nH]4)cc3)cc2)[nH]1)C1CCOC2(CCC2)C1` (single isomer, unassigned) [Example 2.4]: the EC50 is 0.00501 to 0.1 nM.

Consider `COC(=O)NC(C(=O)N1[C@@H](C)CC[C@H]1c1ncc(-c2ccc(-c3ccc(-c4cnc([C@@H]5CC[C@H](C)N5C(=O)C(NC(=O)OC)C5CCOC6(CCCC6)C5)[nH]4)cc3)cc2)[nH]1)C1CCOC2(CCCC2)C1` (single isomer, unassigned) [Example 3.4], for which the EC50 lay in the range of 0.00501 to 0.1 nM.

The experiment is the same for the next values; noted with them: Hepatitis C virus, HCV 1b replicon; read-out: 1b (μM): EC50 (Effective 50% inhibitory concentration) against the HCV 1b genotype.
Consider `COC(=O)NC(C(=O)N1[C@@H]2C[C@@H]2C[C@H]1c1nc(-c2ccc(-c3ccc(-c4c[nH]c([C@@H]5C[C@H]6C[C@H]6N5C(=O)C(NC(=O)OC)[C@H]5C[C@@H]6C[C@@H]6C5)n4)cc3)cc2)c[nH]1)[C@H]1C[C@@H]2C[C@@H]2C1` (single isomer, unassigned; diastereomer 3) [QC5.3], for which the EC50 was determined as 0.00555 nM.

Staying with this experiment, now noted: Hepatitis C virus, HCV 1b replicon; read-out: Range: EC50 ranges against HCV 1b.
Consider `COC(=O)N[C@H](C(=O)N1[C@@H]2C[C@@H]2C[C@H]1c1nc(-c2ccc(-c3ccc(-c4c[nH]c([C@@H]5C[C@H]6C[C@H]6N5C(=O)[C@@H](NC(=O)OC)C56CC(C(F)(F)F)(C5)C6)n4)cc3)cc2)c[nH]1)C12CC(C(F)(F)F)(C1)C2` [Example OL11, dimethyl (4,4′-biphenyldiylbis(1H-imidazole-4,2-diyl(1R,3S,5R)-2-azabicyclo[3.1.0]hexane-3,2-diyl((1S)-2-oxo-1-(3-(trifluoromethyl)bicyclo[1.1.1]pent-1-yl)-2,1-ethanediyl)))biscarbamate], for which the EC50 was 0.00501 to 0.1 nM.

`COC(=O)N[C@H](C(=O)N1C[C@H](CC2CC2)C[C@H]1c1nc(-c2ccc(-c3ccc(-c4c[nH]c([C@@H]5C[C@@H](CC6CC6)CN5C(=O)[C@@H](NC(=O)OC)C5C[C@@H](C)O[C@H](C)C5)n4)cc3)cc2)c[nH]1)C1C[C@@H](C)O[C@H](C)C1` (stereo partly drawn) [Example JLR-2.0, dimethyl (4,4′-biphenyldiylbis(1H-imidazole-4,2-diyl((2S,4R)-4-(cyclopropylmethyl)-2,1-pyrrolidinediyl)((1S)-1-((2R,6R)-2,6-dimethyltetrahydro-2H-pyran-4-yl)-2-oxo-2,1-ethanediyl)))biscarbamate]: the EC50 lay in the range of 0.00501 to 0.1 nM.

For `COC(=O)N[C@H](C(=O)N1[C@@H](C)CC[C@H]1c1ncc(-c2ccc(-c3ccc(-c4cnc([C@@H]5CC[C@H](C)N5C(=O)[C@@H](NC(=O)OC)[C@@H]5CCO[C@@H](C6CC6)C5)[nH]4)cc3)cc2)[nH]1)[C@@H]1CCO[C@@H](C2CC2)C1` [Example 6], the EC50 lay in the range of 0.00501 to 0.1 nM.

Take `COC(=O)NC(C(=O)N1[C@@H]2C[C@@H]2C[C@H]1c1nc(-c2ccc(-c3ccc(-c4c[nH]c([C@@H]5C[C@H]6C[C@H]6N5C(=O)C(NC(=O)OC)[C@H]5C[C@@H]6C[C@@H]6C5)n4)cc3)cc2)c[nH]1)[C@H]1C[C@@H]2C[C@@H]2C1` (single isomer, unassigned; diastereomer 3) [QC5.3]: the EC50 lay in the range of 0.00501 to 0.1 nM.

For `COC(=O)NC(C(=O)N1[C@@H](C)CC[C@H]1c1nc(-c2ccc(-c3ccc(-c4c[nH]c([C@@H]5CC[C@H](C)N5C(=O)C(NC(=O)OC)=C5CC(C)(C#N)C5)n4)cc3)cc2)c[nH]1)=C1CC(C)(C#N)C1` (stereo partly drawn) [Example 12.1, dimethyl (4,4′-biphenyldiylbis(1H-imidazole-4,2-diyl((2S,5S)-5-methyl-2,1-pyrrolidinediyl)(1-(3-cyano-3-methylcyclobutylidene)-2-oxo-2,1-ethanediyl)))biscarbamate], the EC50 was in the range of 0.9 to 700 nM.

On to `COC(=O)NC(C(=O)N1CCC[C@H]1c1ncc(-c2ccc(-c3ccc(-c4cnc([C@@H]5CCCN5C(=O)C(NC(=O)OC)C5CCOC6(CC6)C5)[nH]4)cn3)cc2)[nH]1)C1CCOC2(CC2)C1` (stereo partly drawn) [OL6, methyl (2-((2S)-2-(5-(6-(4-(2-((2S)-1-(((methoxycarbonyl)amino)(4-oxaspiro[2.5]oct-7-yl)acetyl)pyrrolidin-2-yl)-1H-imidazol-5-yl)phenyl)pyridin-3-yl)-1H-imidazol-2-yl)pyrrolidin-1-yl)-1-(4-oxaspiro[2.5]oct-7-yl)-2-oxoethyl)carbamate], for which the EC50 was in the range of 0.1 to 0.9 nM.
